Measured values: ChEMBL document CHEMBL1201862, “PubChem BioAssay data set” (2004)
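Following 48 hours of exposure in 96-well plates, responses at five concentrations were used to interpolate endpoints linearly. GI50 = concentration required for 50% inhibition of growth.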 Activity calls are given as the source filed them. Cut-off read from the data, not from the text of the source: active = GI50 up to about 1.1 µM and inactive = higher.

Key:
Test in all cases: inhibition of tumour cell growth, NCI panel, 48 h
786-0 = system: 786-0
A498 = system: A498
A549 = system: A549
ACHN = system: ACHN
BT-549 = system: BT-549
CAKI-1 = system: CAKI-1
CCRF-CEM = system: CCRF-CEM
COLO 205 = system: COLO 205
DU-145 = system: DU-145
EKVX = system: EKVX
HCT-116 = system: HCT-116
HCT-15 = system: HCT-15
HL-60 = system: HL-60
HOP-62 = system: HOP-62
HOP-92 = system: HOP-92
HT-29 = system: HT-29
Hs-578T = system: Hs-578T
IGROV-1 = system: IGROV-1
K562 = system: K562
KM12 = system: KM12
LOX IMVI = system: LOX IMVI
M14 = system: M14
MCF7 = system: MCF7
MDA-MB-231 = system: MDA-MB-231
MDA-MB-435 = system: MDA-MB-435
MDA-N = system: MDA-N
MOLT-4 = system: MOLT-4
Malme-3M = system: Malme-3M
NCI-H226 = system: NCI-H226
NCI-H23 = system: NCI-H23
NCI-H460 = system: NCI-H460
NCI-H522 = system: NCI-H522
NCI/ADR-RES = system: NCI/ADR-RES
OVCAR-3 = system: OVCAR-3
OVCAR-4 = system: OVCAR-4
OVCAR-5 = system: OVCAR-5
OVCAR-8 = system: OVCAR-8
PC-3 = system: PC-3
RPMI-8226 = system: RPMI-8226
RXF 393 = system: RXF 393
SF-268 = system: SF-268
SF-295 = system: SF-295
SK-MEL-28 = system: SK-MEL-28
SK-MEL-2 = system: SK-MEL-2
SK-MEL-5 = system: SK-MEL-5
SN12C = system: SN12C
SNB-19 = system: SNB-19
SW-620 = system: SW-620
T47D = system: T47D
TK-10 = system: TK-10
U-251 = system: U-251
UACC-257 = system: UACC-257
UACC-62 = system: UACC-62
UO-31 = system: UO-31
SF-539 = system: SF-539
SK-OV-3 = system: SK-OV-3

In the case of O=c1[nH]nc(Cc2ccccc2)n1N=C1CCCCC1, the GI50 (786-0) is reported as > 100 µM (inactive), the GI50 (A498) is reported as > 100 µM (inactive) and the GI50 (A549) is reported as > 100 µM (inactive). The GI50 (ACHN) was > 100 µM (inactive), the GI50 (BT-549) was > 100 µM (inactive) and the GI50 (CAKI-1) was > 100 µM (inactive). For the same molecule, the GI50 (CCRF-CEM) was > 100 µM (inactive), the GI50 (COLO 205) was > 100 µM (inactive) and the GI50 (DU-145) was > 100 µM (inactive). The GI50 (EKVX) was < 0.01 µM (active), the GI50 (HCT-116) was > 100 µM (inactive) and the GI50 (HCT-15) was greater than 100 µM. The GI50 (HL-60) was > 100 µM (inactive), the GI50 (HOP-62) was > 100 µM (inactive) and the GI50 (HOP-92) was > 100 µM (inactive). For the same molecule, the GI50 (HT-29) was 58.7 µM (inactive), the GI50 (Hs-578T) was > 100 µM (inactive) and the GI50 (IGROV-1) was > 100 µM (inactive). The GI50 (K562) was > 100 µM (inactive), the GI50 (KM12) was > 100 µM (inactive) and the GI50 (LOX IMVI) was > 100 µM (inactive). The GI50 (M14) was > 100 µM (inactive), the GI50 (MCF7) was > 100 µM (inactive) and the GI50 (MDA-MB-231) was > 100 µM (inactive). For the same molecule, the GI50 (MDA-MB-435) was > 100 µM (inactive), the GI50 (MDA-N) was > 100 µM (inactive) and the GI50 (MOLT-4) was > 100 µM (inactive). For the same molecule, the GI50 (Malme-3M) was > 100 µM (inactive), the GI50 (NCI-H226) was > 100 µM (inactive) and the GI50 (NCI-H23) was > 100 µM (inactive). For the same molecule, the GI50 (NCI-H460) was > 100 µM (inactive), the GI50 (NCI-H522) was > 100 µM (inactive) and the GI50 (NCI/ADR-RES) was > 100 µM (inactive). The GI50 (OVCAR-3) was > 100 µM (inactive), the GI50 (OVCAR-4) was > 100 µM (inactive) and the GI50 (OVCAR-5) was 3.78 µM (inactive). The GI50 (OVCAR-8) was > 100 µM (inactive), the GI50 (PC-3) was > 100 µM (inactive) and the GI50 (RPMI-8226) was > 100 µM (inactive). The GI50 (RXF 393) was > 100 µM (inactive), the GI50 (SF-268) was > 100 µM (inactive) and the GI50 (SF-295) was > 100 µM (inactive). The GI50 (SK-MEL-28) was > 100 µM (inactive), the GI50 (SK-MEL-2) was > 100 µM (inactive) and the GI50 (SK-MEL-5) was > 100 µM (inactive). The GI50 (SN12C) was > 100 µM (inactive), the GI50 (SNB-19) was > 100 µM (inactive) and the GI50 (SW-620) was > 100 µM (inactive). For the same molecule, the GI50 (T47D) was > 100 µM (inactive), the GI50 (TK-10) was > 100 µM (inactive) and the GI50 (U-251) was > 100 µM (inactive). For the same molecule, the GI50 (UACC-257) was > 100 µM (inactive), the GI50 (UACC-62) was > 100 µM (inactive) and the GI50 (UO-31) was > 100 µM (inactive).
In the case of Clc1ccccc1/C=c1\nc(-c2ccccc2)n2c1nc1ccccc12, the GI50 (786-0) is reported as 41.2 µM (inactive), the GI50 (A498) is reported as > 100 µM (inactive) and the GI50 (A549) is reported as > 100 µM (inactive). The GI50 (ACHN) was > 100 µM (inactive), the GI50 (BT-549) was 18.2 µM (inactive) and the GI50 (CAKI-1) was 68.7 µM (inactive). For the same molecule, the GI50 (CCRF-CEM) was > 100 µM (inactive), the GI50 (COLO 205) was > 100 µM (inactive) and the GI50 (DU-145) was > 100 µM (inactive). For the same molecule, the GI50 (EKVX) was 13.4 µM (inactive), the GI50 (HCT-116) was 35.4 µM (inactive) and the GI50 (HCT-15) was greater than 100 µM. For the same molecule, the GI50 (HL-60) was > 100 µM (inactive), the GI50 (HOP-62) was 20.8 µM (inactive) and the GI50 (HOP-92) was 40.7 µM (inactive). The GI50 (HT-29) was > 100 µM (inactive), the GI50 (Hs-578T) was 25.8 µM (inactive) and the GI50 (IGROV-1) was 27.2 µM (inactive). The GI50 (K562) was > 100 µM (inactive), the GI50 (KM12) was > 100 µM (inactive) and the GI50 (LOX IMVI) was > 100 µM (inactive). For the same molecule, the GI50 (M14) was > 100 µM (inactive), the GI50 (MCF7) was > 100 µM (inactive) and the GI50 (MDA-MB-231) was 22.8 µM (inactive). The GI50 (MDA-MB-435) was > 100 µM (inactive), the GI50 (MDA-N) was 30.6 µM (inactive) and the GI50 (MOLT-4) was > 100 µM (inactive). For the same molecule, the GI50 (Malme-3M) was > 100 µM (inactive), the GI50 (NCI-H226) was > 100 µM (inactive) and the GI50 (NCI-H23) was 17.8 µM (inactive). For the same molecule, the GI50 (NCI-H460) was > 100 µM (inactive), the GI50 (NCI/ADR-RES) was 40.9 µM (inactive) and the GI50 (OVCAR-3) was > 100 µM (inactive). For the same molecule, the GI50 (OVCAR-4) was > 100 µM (inactive), the GI50 (OVCAR-5) was > 100 µM (inactive) and the GI50 (OVCAR-8) was 31.2 µM (inactive). The GI50 (PC-3) was 4.66 µM (inactive), the GI50 (RPMI-8226) was 84.3 µM (inactive) and the GI50 (RXF 393) was 18.2 µM (inactive). The GI50 (SF-268) was 19.8 µM (inactive), the GI50 (SF-295) was 10.7 µM (inactive) and the GI50 (SF-539) was 20 µM (inactive). The GI50 (SK-MEL-28) was > 100 µM (inactive), the GI50 (SK-MEL-2) was 45.3 µM (inactive) and the GI50 (SK-MEL-5) was > 100 µM (inactive). The GI50 (SK-OV-3) was 25.3 µM (inactive), the GI50 (SN12C) was > 100 µM (inactive) and the GI50 (SNB-19) was 40.3 µM (inactive). The GI50 (SW-620) was > 100 µM (inactive), the GI50 (T47D) was > 100 µM (inactive) and the GI50 (TK-10) was 31.4 µM (inactive). For the same molecule, the GI50 (U-251) was 21.7 µM (inactive), the GI50 (UACC-257) was > 100 µM (inactive) and the GI50 (UACC-62) was 30.8 µM (inactive). The GI50 (UO-31) was > 100 µM (inactive).
